Measurements as given in patent US9725442B2, “Heterocyclic derivative having PGD2 receptor antagonist activity” (Shionogi & Co., Ltd., priority 2011, dated 2017).
pIC50, pKi: −log10 of the molar value. Read-outs that look alike come from different tables or passages of the source.

What was measured:
Human DP1 receptor = Human DP1 receptor (Homo sapiens (Human), UniProt Q13258); experiment: Human DP1 inhibitory activity in DP1-expressing cell (PGD2-induced cAMP); assay type: cell-based; details: category of cAMP IC50, human DP1 receptor expressing Jurkut cell
Description: Compounds were categorized as AA (cAMP is less than 100 nM) and A (cAMP is more than 100 nM and less than 5000 nM) as shown in Table 99 and 100.

CRTH2 = CRTH2 (Homo sapiens (Human), UniProt Q9Y5Y4); experiment: CRTH2 receptor binding inhibitory activity ([3H]-PGD2 displacement, membranes of CRTH2-expressing K562 cell); details: [3H]-PGD2 displacement, membrane of CRTH2-expressing K562 cell, read-out: Ki
Description: Cell membrane was prepared from CRTH2-expressing K562 cell. The cell membrane (20 μg/well) was mixed with reaction buffer (50 mM Tris/HCl, pH 7.4, 10 mM MgCl2). Then, [^3H]-PGD2 was added to the mixture and incubated for 60 min at room temperature. […] Then, the mixture was filtrated with glass paper immediately. The filter paper was washed several times and radio activity on the filter was measured. Specific binding was defined as difference between total and non-specific binding (radio activity with 10 μM PGD2). Ki values for each compound were calculated from displacement curve.

[1] = CRTH2 receptor binding, categorized AAAA/AAA

CRTH2, sequence (Q9Y5Y4 whole entry): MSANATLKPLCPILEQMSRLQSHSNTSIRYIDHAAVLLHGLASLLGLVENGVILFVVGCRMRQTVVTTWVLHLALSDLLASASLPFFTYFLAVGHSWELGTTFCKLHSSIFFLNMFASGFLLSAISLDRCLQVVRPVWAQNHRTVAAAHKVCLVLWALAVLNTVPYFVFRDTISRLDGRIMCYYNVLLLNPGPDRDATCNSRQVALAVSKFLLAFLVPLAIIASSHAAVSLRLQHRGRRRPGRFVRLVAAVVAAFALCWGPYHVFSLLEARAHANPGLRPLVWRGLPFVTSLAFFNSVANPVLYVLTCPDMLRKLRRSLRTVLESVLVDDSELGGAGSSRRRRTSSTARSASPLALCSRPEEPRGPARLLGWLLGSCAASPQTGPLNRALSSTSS
Human DP1 receptor, sequence (Q13258 whole entry): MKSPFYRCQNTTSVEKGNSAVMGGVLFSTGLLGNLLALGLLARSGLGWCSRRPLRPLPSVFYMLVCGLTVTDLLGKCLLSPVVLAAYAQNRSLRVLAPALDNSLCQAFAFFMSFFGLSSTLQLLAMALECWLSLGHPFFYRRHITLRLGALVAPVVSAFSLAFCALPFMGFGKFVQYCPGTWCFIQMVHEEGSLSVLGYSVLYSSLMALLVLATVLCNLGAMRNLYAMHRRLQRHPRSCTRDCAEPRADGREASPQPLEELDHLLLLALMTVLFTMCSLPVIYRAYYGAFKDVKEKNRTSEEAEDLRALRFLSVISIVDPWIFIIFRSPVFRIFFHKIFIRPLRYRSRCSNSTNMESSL

| SMILES | pIC50 (Human DP1 receptor) | pKi (CRTH2; [1]) | pKi (CRTH2) |
| --- | --- | --- | --- |
| CCOc1ccc(S(=O)(=O)N2C[C@@H](C)[C@@H](n3nc(CC(=O)O)c4ccccc43)C2)c([N+](=O)[O-])c1 [Compound I-324] | > 7.00 | > 7.00 |  |
| CCOc1ccc(S(=O)(=O)N2C[C@@H](C)[C@@H](n3nc(CC4=NNC(=O)C4)c4ccccc43)C2)cc1 [Compound I-297] | 5.30 to 7.00 | 5.30 to 7.00 |  |
| CCOc1ccc(S(=O)(=O)N2C[C@@H](C)[C@@H](n3nc(CC(=O)O)c4ccccc43)C2)c(/C=C/CO)c1 [Compound I-279] | 5.30 to 7.00 | > 7.00 |  |
| CCOc1ccc(S(=O)(=O)N2C[C@@H](C)[C@@H](n3nc(C(C)(OC)C(=O)O)c4ccccc43)C2)cc1 (stereo partly drawn) [Compound I-285] | 5.30 to 7.00 | 5.30 to 7.00 |  |
| CCOc1ccc(S(=O)(=O)N2C[C@H](n3nc(CC(=O)O)c4ccccc43)[C@@](C)(F)C2)cn1 (racemic) [Compound I-207] | 5.30 to 7.00 | > 7.00 |  |
| CCOc1ccc(S(=O)(=O)N2C[C@H](n3c(C)c(CC(=O)O)c4ccccc43)C[C@@H]2C)cc1 [Compound I-315] | > 7.00 | 5.30 to 7.00 |  |
| CCOc1ccc(S(=O)(=O)N2C[C@@H](C)[C@@H](n3nc(CC(=O)O)c4cc(Cl)ccc43)C2)cn1 [Compound I-162] | > 7.00 | 5.30 to 7.00 |  |
| C[C@@H]1CN(S(=O)(=O)C2CCCCC2)C[C@@H]1n1nc(CC(=O)O)c2ccccc21 [Compound I-266] | 5.30 to 7.00 | 5.30 to 7.00 |  |
| CCOc1ccc(S(=O)(=O)N2C[C@@H](C)[C@@H](n3nc(Cc4cc(O)no4)c4ccccc43)C2)cc1 [Compound I-341] | 5.30 to 7.00 | 5.30 to 7.00 |  |
| CCOc1ccc(S(=O)(=O)N2C[C@@H](C)[C@@H](n3cc(CC(=O)O)c4ccc(C)cc43)C2)cn1 [Compound I-272] | > 7.00 | > 7.00 |  |
| CCOc1ccc(S(=O)(=O)N2C[C@@H](C)[C@@H](n3cc(CC(=O)O)c4ccc(-c5cnn(C)c5)cc43)C2)cc1 [Compound I-328] | 5.30 to 7.00 | 5.30 to 7.00 |  |
| COCCOCCOC[C@H]1C[C@@H](n2nc(CC(=O)O)c3ccc(F)cc32)CN1S(=O)(=O)c1ccc(OC(C)C)cc1 [Compound I-291] | 5.30 to 7.00 | 5.30 to 7.00 |  |
| CC(C)Oc1ccc(S(=O)(=O)N2C[C@H](n3nc(CC(=O)O)c4ccc(F)cc43)C[C@H]2C(N)=O)cc1 [Compound I-2] | 5.30 to 7.00 | 5.30 to 7.00 |  |
| CC(C)Oc1ccc(S(=O)(=O)N2C[C@H](n3nc(CC(=O)O)c4ccc(F)cc43)C[C@@H]2c2ccccn2)cc1 [Compound I-351] | 5.30 to 7.00 | 5.30 to 7.00 |  |
| CC(C)Oc1ccc(S(=O)(=O)N2C[C@H](n3nc(CC(=O)O)c4cccc(F)c43)C[C@@H]2C)cc1 [Compound I-60] | > 7.00 | 5.30 to 7.00 |  |
| CC(C)Oc1ccc(S(=O)(=O)N2C[C@H](n3nc(CC(=O)O)c4cc(Cl)ccc43)C[C@H]2C)cc1 [Compound I-15] | 5.30 to 7.00 | > 7.00 | 7.25 |
| CCOc1ccc(S(=O)(=O)N2C[C@H](n3nc(CC(=O)O)c4ccccc43)[C@H](C)[C@H]2C#N)cn1 [Compound I-293] | 5.30 to 7.00 | 5.30 to 7.00 |  |
| CCOc1ccc(S(=O)(=O)N2C[C@@H](C)[C@@H](n3nc(CC(=O)O)c4cc5c(cc43)OCO5)C2)cn1 [Compound I-176] | 5.30 to 7.00 | > 7.00 |  |
| CCOc1ccc(S(=O)(=O)N2C[C@@H](C)[C@@H](n3nc(CC(=O)O)c4ccccc43)C2)c(COC)c1 [Compound I-184] | 5.30 to 7.00 | > 7.00 |  |

Now from value to compound:

| pIC50 (Human DP1 receptor) | pKi (CRTH2; [1]) | pKi (CRTH2) | SMILES |
| --- | --- | --- | --- |
| 5.30 to 7.00 | 5.30 to 7.00 |  | CCOc1ccc(S(=O)(=O)N2C[C@@H](C)[C@@H](n3nc(CC(=O)NO)c4ccccc43)C2)cc1 [Compound I-311] |
| 5.30 to 7.00 | > 7.00 |  | CC(C)Oc1ccc(S(=O)(=O)N2C[C@H](n3nc(CC(=O)O)c4ccc(F)cc43)C[C@H]2CC#N)cc1 [Compound I-14] |
| 5.30 to 7.00 | > 7.00 |  | CC(C)Oc1ccc(S(=O)(=O)N2CC(F)[C@@H](n3nc(CC(=O)O)c4ccc(F)cc43)C2)cc1 (stereo partly drawn) [Compound I-26] |
| > 7.00 | > 7.00 |  | CC(C)Oc1ccc(S(=O)(=O)N2C[C@@H](C)[C@@H](n3nc(CC(=O)O)c4ccc(Cl)cc43)C2)cc1 [Compound I-135] |
| 5.30 to 7.00 | > 7.00 |  | COc1ccc(S(=O)(=O)N2C[C@@H](C)[C@@H](n3nc(CC(=O)O)c4ccccc43)C2)cn1 [Compound I-240] |
| > 7.00 | > 7.00 |  | CCCCOc1ccc(S(=O)(=O)N2C[C@@H](C)[C@@H](n3nc(CC(=O)O)c4ccccc43)C2)cc1 [Compound I-151] |
| 5.30 to 7.00 | > 7.00 |  | CCOc1ccc(S(=O)(=O)N2C[C@@H](C)[C@@H](n3nc(CC(=O)O)c4cc5c(cc43)OCO5)C2)cc1 [Compound I-175] |
| > 7.00 | > 7.00 |  | C[C@@H]1CN(S(=O)(=O)c2ccc(OCF)cc2)C[C@@H]1n1nc(CC(=O)O)c2ccc(F)cc21 [Compound I-269] |
| 5.30 to 7.00 | > 7.00 |  | C[C@@H]1CN(S(=O)(=O)c2ccccc2Cl)C[C@@H]1n1nc(CC(=O)O)c2ccc(F)cc21 [Compound I-121] |
| > 7.00 | > 7.00 |  | Cc1ccc2c(CC(=O)O)nn([C@H]3CN(S(=O)(=O)c4ccc(OC(C)C)cc4)C[C@@H]3C)c2c1 [Compound I-114] |
| > 7.00 | > 7.00 |  | C[C@@H]1CN(S(=O)(=O)c2ccc(OC(F)F)cc2)C[C@@H]1n1nc(CC(=O)O)c2cc(F)ccc21 [Compound I-251] |
| 5.30 to 7.00 | 5.30 to 7.00 |  | CC(C)Oc1ccc(S(=O)(=O)N2C[C@@H](C)[C@H](n3nc(CC(=O)O)c4ccccc43)C2)cc1 [Compound I-199] |
| 5.30 to 7.00 | > 7.00 |  | CC(C)Oc1ccc(S(=O)(=O)N2C[C@@H](CCF)[C@@H](n3nc(CC(=O)O)c4ccc(F)cc43)C2)cc1 [Compound I-45] |
| > 7.00 | > 7.00 |  | C[C@@H]1CN(S(=O)(=O)c2ccc(OC(F)(F)F)cc2)C[C@@H]1n1nc(CC(=O)O)c2ccccc21 [Compound I-242] |
| 5.30 to 7.00 | > 7.00 |  | CC(C)Oc1ccc(S(=O)(=O)N2C[C@@H](C)[C@@H](n3nc(CC(=O)O)c4cccc(Cl)c43)C2)cc1 [Compound I-61] |
| 5.30 to 7.00 | > 7.00 |  | C=C1CN(S(=O)(=O)c2ccc(OC(C)C)cc2)CC1n1nc(CC(=O)O)c2ccc(F)cc21 (stereo not drawn) [Compound I-43] |
| > 7.00 | 5.30 to 7.00 |  | CCc1ccc(S(=O)(=O)N2C[C@@H](C)[C@@H](n3nc(CC(=O)O)c4ccccc43)C2)cc1 [Compound I-243] |
| 5.30 to 7.00 | > 7.00 |  | CCOc1ccc(S(=O)(=O)N2C[C@H](C)[C@@H](n3nc(CC(=O)O)c4ccccc43)C2)cn1 [Compound I-201] |
| 5.30 to 7.00 | > 7.00 | 8.00 | CC(C)Oc1ccc(S(=O)(=O)N2CC[C@@H](n3nc(CC(=O)O)c4ccc(F)cc43)[C@@H]2C)cc1 [Compound I-210] |
| > 7.00 | > 7.00 |  | Cc1ccc2c(CC(=O)O)nn([C@H]3CN(S(=O)(=O)c4ccc(OC(F)F)cc4)C[C@H]3C)c2c1 [Compound I-110] |
| 5.30 to 7.00 | > 7.00 |  | COCCOc1ccc(S(=O)(=O)N2C[C@@H](C)[C@@H](n3nc(CC(=O)O)c4ccccc43)C2)cc1 [Compound I-189] |
| > 7.00 | > 7.00 |  | COc1ccc(S(=O)(=O)N2C[C@@H](C)[C@@H](n3nc(CC(=O)O)c4ccc(C(F)(F)F)cc43)C2)cc1 [Compound I-128] |
